From the NIST ThermoML archive (doi:10.1021/je7003929)

Test: xn = mol fraction of the nth substance listed
Settings: Liquid, Vibrating tube method

c1ccc2sccc2c1 [benzo[b]thiophene] + CCCCCC
Settings	mass density [kg/m3]
312.99 K, 1009 kPa, x2 = 0.2588	1009
312.99 K, 2023 kPa, x2 = 0.2588	1009.7
312.99 K, 3016 kPa, x2 = 0.2588	1010.5
312.99 K, 4029 kPa, x2 = 0.2588	1011.2
312.99 K, 5004 kPa, x2 = 0.2588	1011.9
312.99 K, 6021 kPa, x2 = 0.2588	1012.6
312.99 K, 7031 kPa, x2 = 0.2588	1013.3
312.99 K, 8005 kPa, x2 = 0.2588	1014
312.99 K, 9022 kPa, x2 = 0.2588	1014.8
312.99 K, 10016 kPa, x2 = 0.2588	1015.4
312.99 K, 11004 kPa, x2 = 0.2588	1016.1
312.99 K, 12015 kPa, x2 = 0.2588	1016.8
312.99 K, 13015 kPa, x2 = 0.2588	1017.5
312.99 K, 14003 kPa, x2 = 0.2588	1018.2
312.99 K, 15011 kPa, x2 = 0.2588	1018.9
312.99 K, 16003 kPa, x2 = 0.2588	1019.5
312.99 K, 17010 kPa, x2 = 0.2588	1020.2
312.99 K, 18002 kPa, x2 = 0.2588	1020.9
312.99 K, 19029 kPa, x2 = 0.2588	1021.5
312.99 K, 20017 kPa, x2 = 0.2588	1022.2
313 K, 1011 kPa, x2 = 0.0629	1112.7
313 K, 2027 kPa, x2 = 0.0629	1113.3
313 K, 3046 kPa, x2 = 0.0629	1113.9
313 K, 4018 kPa, x2 = 0.0629	1114.5
313 K, 5014 kPa, x2 = 0.0629	1115.2
313 K, 6016 kPa, x2 = 0.0629	1115.7
313 K, 7014 kPa, x2 = 0.0629	1116.3
313 K, 8008 kPa, x2 = 0.0629	1116.9
313 K, 9013 kPa, x2 = 0.0629	1117.6
313 K, 10003 kPa, x2 = 0.0629	1118.1
313 K, 11005 kPa, x2 = 0.0629	1118.7
313 K, 12017 kPa, x2 = 0.0629	1119.3
313 K, 13017 kPa, x2 = 0.0629	1119.9
313 K, 14023 kPa, x2 = 0.0629	1120.5
313 K, 15024 kPa, x2 = 0.0629	1121
313 K, 16016 kPa, x2 = 0.0629	1121.6
313 K, 17014 kPa, x2 = 0.0629	1122.3
313 K, 18019 kPa, x2 = 0.0629	1122.8
313 K, 19014 kPa, x2 = 0.0629	1123.4
313 K, 20000 kPa, x2 = 0.0629	1124
313.11 K, 1023 kPa, x2 = 0.9432	669
313.11 K, 2023 kPa, x2 = 0.9432	670
313.11 K, 3037 kPa, x2 = 0.9432	671
313.11 K, 4019 kPa, x2 = 0.9432	672.2
313.11 K, 5025 kPa, x2 = 0.9432	673.3
313.11 K, 6058 kPa, x2 = 0.9432	674.4
313.11 K, 7008 kPa, x2 = 0.9432	675.5
313.11 K, 8047 kPa, x2 = 0.9432	676.6
313.11 K, 9025 kPa, x2 = 0.9432	677.6
313.11 K, 10040 kPa, x2 = 0.9432	678.6
313.11 K, 11000 kPa, x2 = 0.9432	679.6
313.11 K, 12016 kPa, x2 = 0.9432	680.7
313.11 K, 13019 kPa, x2 = 0.9432	681.6
313.11 K, 14016 kPa, x2 = 0.9432	682.6
313.11 K, 15029 kPa, x2 = 0.9432	683.6
313.11 K, 16024 kPa, x2 = 0.9432	684.5
313.11 K, 17011 kPa, x2 = 0.9432	685.5
313.11 K, 18015 kPa, x2 = 0.9432	686.4
313.11 K, 19046 kPa, x2 = 0.9432	687.4
313.11 K, 20016 kPa, x2 = 0.9432	688.2
313.13 K, 1017 kPa, x2 = 0.7491	761.8
313.13 K, 2027 kPa, x2 = 0.7491	762.9
313.13 K, 3031 kPa, x2 = 0.7491	764
313.13 K, 4039 kPa, x2 = 0.7491	764.9
313.13 K, 5021 kPa, x2 = 0.7491	765.9
313.13 K, 6027 kPa, x2 = 0.7491	766.9
313.13 K, 7021 kPa, x2 = 0.7491	767.9
313.13 K, 8054 kPa, x2 = 0.7491	768.9
313.13 K, 9007 kPa, x2 = 0.7491	769.8
313.13 K, 10018 kPa, x2 = 0.7491	770.7
313.13 K, 11018 kPa, x2 = 0.7491	771.6
313.13 K, 12036 kPa, x2 = 0.7491	772.6
313.13 K, 13021 kPa, x2 = 0.7491	773.5
313.13 K, 14007 kPa, x2 = 0.7491	774.3
313.13 K, 15006 kPa, x2 = 0.7491	775.2
313.13 K, 16012 kPa, x2 = 0.7491	776
313.13 K, 17016 kPa, x2 = 0.7491	776.9
313.13 K, 18000 kPa, x2 = 0.7491	777.8
313.13 K, 19017 kPa, x2 = 0.7491	778.6
313.13 K, 20030 kPa, x2 = 0.7491	779.5
313.15 K, 1025 kPa, x2 = 0.4495	910.7
313.15 K, 2010 kPa, x2 = 0.4495	911.5
313.15 K, 3028 kPa, x2 = 0.4495	912.4
313.15 K, 4011 kPa, x2 = 0.4495	913.2
313.15 K, 5013 kPa, x2 = 0.4495	914
313.15 K, 6021 kPa, x2 = 0.4495	914.8
313.15 K, 7010 kPa, x2 = 0.4495	915.6
313.15 K, 8033 kPa, x2 = 0.4495	916.4
313.15 K, 9029 kPa, x2 = 0.4495	917.2
313.15 K, 10015 kPa, x2 = 0.4495	918
313.15 K, 11018 kPa, x2 = 0.4495	918.8
313.15 K, 12012 kPa, x2 = 0.4495	919.5
313.15 K, 13010 kPa, x2 = 0.4495	920.3
313.15 K, 14022 kPa, x2 = 0.4495	921
313.15 K, 15019 kPa, x2 = 0.4495	921.8
313.15 K, 16008 kPa, x2 = 0.4495	922.6
313.15 K, 17018 kPa, x2 = 0.4495	923.3
313.15 K, 18027 kPa, x2 = 0.4495	924.1
313.15 K, 19006 kPa, x2 = 0.4495	924.8
313.15 K, 20006 kPa, x2 = 0.4495	925.5
322.05 K, 1026 kPa, x2 = 0.4495	901.9
322.05 K, 2020 kPa, x2 = 0.4495	902.8
322.05 K, 3015 kPa, x2 = 0.4495	903.7
322.05 K, 4003 kPa, x2 = 0.4495	904.5
322.05 K, 5014 kPa, x2 = 0.4495	905.4
322.05 K, 6021 kPa, x2 = 0.4495	906.3
322.05 K, 7015 kPa, x2 = 0.4495	907.2
322.05 K, 8009 kPa, x2 = 0.4495	908
322.05 K, 9028 kPa, x2 = 0.4495	908.9
322.05 K, 10013 kPa, x2 = 0.4495	909.7
322.05 K, 11021 kPa, x2 = 0.4495	910.5
322.05 K, 12023 kPa, x2 = 0.4495	911.3
322.05 K, 13008 kPa, x2 = 0.4495	912.1
322.05 K, 14021 kPa, x2 = 0.4495	913
322.05 K, 15012 kPa, x2 = 0.4495	913.7
322.05 K, 16018 kPa, x2 = 0.4495	914.5
322.05 K, 17012 kPa, x2 = 0.4495	915.3
322.05 K, 18012 kPa, x2 = 0.4495	916.1
322.05 K, 19007 kPa, x2 = 0.4495	916.9
322.05 K, 20015 kPa, x2 = 0.4495	917.7
322.89 K, 1017 kPa, x2 = 0.2588	1000
322.89 K, 2023 kPa, x2 = 0.2588	1000.8
322.89 K, 3021 kPa, x2 = 0.2588	1001.5
322.89 K, 4016 kPa, x2 = 0.2588	1002.3
322.89 K, 5026 kPa, x2 = 0.2588	1003.1
322.89 K, 6030 kPa, x2 = 0.2588	1003.8
322.89 K, 7028 kPa, x2 = 0.2588	1004.6
322.89 K, 8018 kPa, x2 = 0.2588	1005.3
322.89 K, 9014 kPa, x2 = 0.2588	1006
322.89 K, 10021 kPa, x2 = 0.2588	1006.7
322.89 K, 11005 kPa, x2 = 0.2588	1007.5
322.89 K, 12022 kPa, x2 = 0.2588	1008.2
322.89 K, 13013 kPa, x2 = 0.2588	1008.9
322.89 K, 14012 kPa, x2 = 0.2588	1009.6
322.89 K, 15017 kPa, x2 = 0.2588	1010.3
322.89 K, 16016 kPa, x2 = 0.2588	1011
322.89 K, 17002 kPa, x2 = 0.2588	1011.7
322.89 K, 18014 kPa, x2 = 0.2588	1012.4
322.89 K, 19024 kPa, x2 = 0.2588	1013.1
322.89 K, 20016 kPa, x2 = 0.2588	1013.8
